Assay [1] addresses Serine/threonine-protein kinase PAK 3 (Homo sapiens) (UniProt O75914). Nature of the assay: Selectivity interaction (Ambit KINOMEscan and KiNATiv profiling in Jurkat cells) EUB0000090b PAK3. The assay is classed as cell-based. Conditions: at 1 µM.
Assay [2] addresses Interleukin-1 receptor-associated kinase 1 (Homo sapiens) (UniProt P51617). Nature of the assay: Selectivity interaction (KinomeScan (DiscoverX)) EUB0000607a IRAK1. To be noted: at 10 µM.
Assay [3] addresses Dual specificity protein kinase CLK4 (Homo sapiens, UniProt Q9HAZ1). The assay is described as follows: Selectivity interaction (KinomeScan (DiscoverX)) EUB0001079a CLK4. Conditions: at 1 µM.
Assay [4] deals with T1, TGF-beta receptor type-1 (Homo sapiens) (UniProt P36897).
T1 sequence (whole entry): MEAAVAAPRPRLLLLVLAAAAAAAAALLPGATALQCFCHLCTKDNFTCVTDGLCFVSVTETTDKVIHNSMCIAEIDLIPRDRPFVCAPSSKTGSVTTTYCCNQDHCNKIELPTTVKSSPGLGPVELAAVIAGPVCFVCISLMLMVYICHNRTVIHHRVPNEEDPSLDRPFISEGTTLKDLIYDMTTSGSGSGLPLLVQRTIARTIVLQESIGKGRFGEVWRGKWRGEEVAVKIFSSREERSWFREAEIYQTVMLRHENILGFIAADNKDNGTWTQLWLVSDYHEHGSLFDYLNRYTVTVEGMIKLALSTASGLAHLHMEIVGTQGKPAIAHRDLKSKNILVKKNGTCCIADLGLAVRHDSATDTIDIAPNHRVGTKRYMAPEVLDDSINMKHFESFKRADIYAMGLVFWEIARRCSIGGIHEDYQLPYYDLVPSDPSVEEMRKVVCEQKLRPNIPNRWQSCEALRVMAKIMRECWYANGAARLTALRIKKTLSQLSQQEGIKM
Nature of the assay: Selectivity interaction (KinomeScan (DiscoverX)) EUB0001079a TGFBR1. Conditions: at 1 µM.

For assay [5], the target named is MAP kinase-activated protein kinase 3 (Homo sapiens) (UniProt Q16644). Nature of the assay: Selectivity interaction (ActivX KiNativ screen (kinase selectivity in THP-1 cell lysates)) EUB0000639a MAPKAPK3. The assay is classed as subcellular. To be noted: lysate.
Chain of MAP kinase-activated protein kinase 3 (Homo sapiens) (Q16644 whole entry, looked up): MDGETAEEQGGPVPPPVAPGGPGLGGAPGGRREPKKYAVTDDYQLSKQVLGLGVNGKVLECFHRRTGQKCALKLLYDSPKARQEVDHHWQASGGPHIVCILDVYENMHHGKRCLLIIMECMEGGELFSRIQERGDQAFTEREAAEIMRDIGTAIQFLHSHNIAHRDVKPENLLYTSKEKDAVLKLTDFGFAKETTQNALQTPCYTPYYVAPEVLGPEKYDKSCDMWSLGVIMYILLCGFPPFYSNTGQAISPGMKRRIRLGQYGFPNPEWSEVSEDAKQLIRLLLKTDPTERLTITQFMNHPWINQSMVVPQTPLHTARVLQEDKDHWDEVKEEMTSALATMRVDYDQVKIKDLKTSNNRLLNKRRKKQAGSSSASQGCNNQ
Assay [6] has as its target Tyrosine-protein kinase ITK/TSK (Homo sapiens, UniProt Q08881). Nature of the assay: Selectivity interaction (Kinase counterscreening (biochemical assay)) EUB0000604a ITK. (In general: A counterscreen serves to expose hits that act by an unwanted route or on another target.)
Assay [7] concerns the target Serine/threonine-protein kinase 26 (Homo sapiens, UniProt Q9P289). The assay is described as follows: Selectivity interaction (KinomeScan (DiscoverX)) EUB0000695a STK26. To be noted: at 100 nM.
Assay [8] concerns the target Dual specificity protein kinase CLK2 (Homo sapiens, UniProt P49760). The assay is described as follows: Selectivity interaction (KinomeScan (DiscoverX)) EUB0000045b CLK2.
Assay [9] deals with Receptor-interacting serine/threonine-protein kinase 2 (Homo sapiens, UniProt O43353). The assay is described as follows: Selectivity interaction (KinomeScan (DiscoverX)) EUB0000595a RIPK2. Conditions: at 10 µM.
Chain of Receptor-interacting serine/threonine-protein kinase 2 (O43353 whole entry): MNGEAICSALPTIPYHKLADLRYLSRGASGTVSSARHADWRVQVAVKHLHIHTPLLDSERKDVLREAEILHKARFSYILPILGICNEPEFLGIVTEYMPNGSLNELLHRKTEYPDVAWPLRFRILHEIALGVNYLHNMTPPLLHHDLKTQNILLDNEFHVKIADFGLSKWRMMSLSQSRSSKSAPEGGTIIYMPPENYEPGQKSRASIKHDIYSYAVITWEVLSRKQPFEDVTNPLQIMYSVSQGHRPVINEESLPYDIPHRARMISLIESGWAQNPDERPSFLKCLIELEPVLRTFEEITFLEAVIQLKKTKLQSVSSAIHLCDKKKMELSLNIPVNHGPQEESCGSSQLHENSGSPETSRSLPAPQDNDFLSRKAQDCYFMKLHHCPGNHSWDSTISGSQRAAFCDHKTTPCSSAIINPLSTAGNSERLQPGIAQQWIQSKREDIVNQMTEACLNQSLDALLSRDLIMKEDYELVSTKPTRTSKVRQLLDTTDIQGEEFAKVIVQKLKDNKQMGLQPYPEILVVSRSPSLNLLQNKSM
For assay [10], the target named is T2, MAP kinase-activated protein kinase 5 (Homo sapiens) (UniProt Q8IW41).
T2 sequence (whole entry): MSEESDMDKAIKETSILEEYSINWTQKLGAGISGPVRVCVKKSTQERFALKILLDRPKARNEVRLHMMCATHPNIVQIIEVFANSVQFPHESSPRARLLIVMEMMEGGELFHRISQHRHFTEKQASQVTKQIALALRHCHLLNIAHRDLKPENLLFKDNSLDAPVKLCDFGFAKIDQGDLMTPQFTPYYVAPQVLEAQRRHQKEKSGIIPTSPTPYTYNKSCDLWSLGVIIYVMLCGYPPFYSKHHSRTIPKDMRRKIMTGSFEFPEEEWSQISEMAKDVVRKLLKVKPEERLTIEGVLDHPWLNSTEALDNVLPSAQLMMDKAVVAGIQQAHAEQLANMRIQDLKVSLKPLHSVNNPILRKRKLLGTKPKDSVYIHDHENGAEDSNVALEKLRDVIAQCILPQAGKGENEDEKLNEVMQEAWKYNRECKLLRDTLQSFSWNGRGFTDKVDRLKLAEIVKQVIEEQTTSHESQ
Nature of the assay: Selectivity interaction (KinomeScan (DiscoverX)) EUB0000595a MAPKAPK5. To be noted: at 10 µM.

Assay [11] deals with T3, Interleukin-1 receptor-associated kinase 3 (Homo sapiens) (UniProt Q9Y616).
T3 sequence (whole entry): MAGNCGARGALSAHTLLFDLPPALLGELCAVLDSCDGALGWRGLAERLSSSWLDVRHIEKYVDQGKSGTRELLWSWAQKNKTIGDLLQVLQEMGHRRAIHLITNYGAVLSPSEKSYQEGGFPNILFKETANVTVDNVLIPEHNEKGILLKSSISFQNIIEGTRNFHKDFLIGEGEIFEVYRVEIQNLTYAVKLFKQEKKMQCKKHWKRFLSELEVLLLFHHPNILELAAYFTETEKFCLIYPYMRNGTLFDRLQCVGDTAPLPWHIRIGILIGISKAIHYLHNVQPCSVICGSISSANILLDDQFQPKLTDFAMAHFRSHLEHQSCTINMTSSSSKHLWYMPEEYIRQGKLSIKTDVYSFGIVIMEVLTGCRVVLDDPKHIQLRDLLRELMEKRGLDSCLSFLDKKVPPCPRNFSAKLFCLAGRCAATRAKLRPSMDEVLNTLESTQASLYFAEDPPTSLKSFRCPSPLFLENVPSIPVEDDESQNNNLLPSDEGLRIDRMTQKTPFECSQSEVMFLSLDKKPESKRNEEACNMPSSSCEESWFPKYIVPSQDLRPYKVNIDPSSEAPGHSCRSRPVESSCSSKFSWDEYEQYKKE
The assay is described as follows: Selectivity interaction (KinomeScan (DiscoverX)) EUB0000595a IRAK3. Conditions: at 10 µM.

For assay [12], the target named is Phosphatidylinositol 4-phosphate 5-kinase type-1 alpha (Homo sapiens) (UniProt Q99755). To be noted: at 10 µM.
Chain of Phosphatidylinositol 4-phosphate 5-kinase type-1 alpha (Homo sapiens) (Q99755 whole entry): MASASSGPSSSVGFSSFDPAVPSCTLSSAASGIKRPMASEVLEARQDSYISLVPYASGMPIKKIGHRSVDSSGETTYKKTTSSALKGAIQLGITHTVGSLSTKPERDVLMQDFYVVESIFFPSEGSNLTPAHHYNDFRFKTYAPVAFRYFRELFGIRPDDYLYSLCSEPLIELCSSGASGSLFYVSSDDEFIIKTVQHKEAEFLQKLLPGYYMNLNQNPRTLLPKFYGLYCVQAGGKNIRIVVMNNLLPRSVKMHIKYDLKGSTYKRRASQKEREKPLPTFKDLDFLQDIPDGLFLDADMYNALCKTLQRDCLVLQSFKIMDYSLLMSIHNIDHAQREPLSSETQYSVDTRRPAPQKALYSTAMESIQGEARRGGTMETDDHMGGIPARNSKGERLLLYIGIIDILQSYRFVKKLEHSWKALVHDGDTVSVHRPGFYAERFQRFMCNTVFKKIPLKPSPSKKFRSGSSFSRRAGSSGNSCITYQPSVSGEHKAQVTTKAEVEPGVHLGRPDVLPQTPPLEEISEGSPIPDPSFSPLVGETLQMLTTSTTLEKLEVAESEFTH

Some results are limits rather than exact numbers.

Chain of Dual specificity protein kinase CLK2 (P49760 whole entry, looked up): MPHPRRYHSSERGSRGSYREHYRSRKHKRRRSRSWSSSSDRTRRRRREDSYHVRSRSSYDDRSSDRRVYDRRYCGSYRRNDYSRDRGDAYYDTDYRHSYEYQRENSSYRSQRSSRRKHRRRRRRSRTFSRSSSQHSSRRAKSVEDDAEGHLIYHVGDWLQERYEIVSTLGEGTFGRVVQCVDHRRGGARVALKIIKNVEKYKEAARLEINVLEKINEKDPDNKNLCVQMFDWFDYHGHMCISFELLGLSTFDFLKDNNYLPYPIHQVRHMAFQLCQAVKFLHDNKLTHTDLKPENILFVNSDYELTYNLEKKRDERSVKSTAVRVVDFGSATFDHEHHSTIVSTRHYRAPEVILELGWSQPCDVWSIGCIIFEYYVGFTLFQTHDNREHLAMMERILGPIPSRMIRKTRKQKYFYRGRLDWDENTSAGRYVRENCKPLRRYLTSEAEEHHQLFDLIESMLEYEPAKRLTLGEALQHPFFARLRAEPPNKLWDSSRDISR
Chain of Dual specificity protein kinase CLK4 (Q9HAZ1 whole entry, looked up): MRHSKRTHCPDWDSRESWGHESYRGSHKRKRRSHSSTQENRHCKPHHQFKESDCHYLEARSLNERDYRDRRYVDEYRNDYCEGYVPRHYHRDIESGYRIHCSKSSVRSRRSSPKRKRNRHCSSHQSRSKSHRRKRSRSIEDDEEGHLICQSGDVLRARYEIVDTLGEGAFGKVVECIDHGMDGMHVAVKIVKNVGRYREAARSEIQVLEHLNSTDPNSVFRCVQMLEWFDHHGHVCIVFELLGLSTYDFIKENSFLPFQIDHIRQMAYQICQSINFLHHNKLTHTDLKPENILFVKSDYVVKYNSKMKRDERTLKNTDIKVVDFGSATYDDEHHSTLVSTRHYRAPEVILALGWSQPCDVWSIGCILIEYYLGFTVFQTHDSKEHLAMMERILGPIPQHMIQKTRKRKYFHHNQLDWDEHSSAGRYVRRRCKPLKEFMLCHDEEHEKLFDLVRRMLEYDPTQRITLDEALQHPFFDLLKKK
Chain of Serine/threonine-protein kinase 26 (Q9P289 2-416 limits assumed): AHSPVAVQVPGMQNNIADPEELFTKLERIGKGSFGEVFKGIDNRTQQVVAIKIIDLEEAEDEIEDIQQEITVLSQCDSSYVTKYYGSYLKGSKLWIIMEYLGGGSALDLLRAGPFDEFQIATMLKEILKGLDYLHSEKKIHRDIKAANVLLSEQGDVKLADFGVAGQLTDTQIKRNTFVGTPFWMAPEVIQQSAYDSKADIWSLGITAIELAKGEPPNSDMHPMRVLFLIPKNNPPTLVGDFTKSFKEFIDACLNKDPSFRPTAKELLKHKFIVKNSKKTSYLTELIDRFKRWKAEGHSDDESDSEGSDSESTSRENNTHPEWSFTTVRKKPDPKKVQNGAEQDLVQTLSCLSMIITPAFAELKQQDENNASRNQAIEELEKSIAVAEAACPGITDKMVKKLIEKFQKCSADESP
Chain of Interleukin-1 receptor-associated kinase 1 (Homo sapiens) (P51617 whole entry, looked up): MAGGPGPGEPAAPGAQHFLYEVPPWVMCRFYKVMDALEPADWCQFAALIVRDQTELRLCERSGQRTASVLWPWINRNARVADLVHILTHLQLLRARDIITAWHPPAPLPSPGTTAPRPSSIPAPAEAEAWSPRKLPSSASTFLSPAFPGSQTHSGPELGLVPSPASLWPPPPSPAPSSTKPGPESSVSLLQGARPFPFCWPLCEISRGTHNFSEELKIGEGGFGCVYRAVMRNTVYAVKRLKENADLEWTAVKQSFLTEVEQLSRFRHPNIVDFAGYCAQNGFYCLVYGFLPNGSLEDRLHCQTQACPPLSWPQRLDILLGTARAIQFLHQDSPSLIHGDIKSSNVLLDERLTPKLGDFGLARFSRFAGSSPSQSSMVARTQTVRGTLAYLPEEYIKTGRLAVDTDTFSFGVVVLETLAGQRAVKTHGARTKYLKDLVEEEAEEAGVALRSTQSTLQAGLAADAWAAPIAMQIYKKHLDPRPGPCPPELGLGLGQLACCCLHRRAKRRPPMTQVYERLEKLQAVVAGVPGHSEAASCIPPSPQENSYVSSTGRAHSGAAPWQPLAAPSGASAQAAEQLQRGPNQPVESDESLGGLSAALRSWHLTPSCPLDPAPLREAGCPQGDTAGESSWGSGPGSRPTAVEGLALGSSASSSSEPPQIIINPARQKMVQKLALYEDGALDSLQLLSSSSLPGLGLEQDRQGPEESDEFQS
Chain of Serine/threonine-protein kinase PAK 3 (Homo sapiens) (O75914 whole entry, looked up): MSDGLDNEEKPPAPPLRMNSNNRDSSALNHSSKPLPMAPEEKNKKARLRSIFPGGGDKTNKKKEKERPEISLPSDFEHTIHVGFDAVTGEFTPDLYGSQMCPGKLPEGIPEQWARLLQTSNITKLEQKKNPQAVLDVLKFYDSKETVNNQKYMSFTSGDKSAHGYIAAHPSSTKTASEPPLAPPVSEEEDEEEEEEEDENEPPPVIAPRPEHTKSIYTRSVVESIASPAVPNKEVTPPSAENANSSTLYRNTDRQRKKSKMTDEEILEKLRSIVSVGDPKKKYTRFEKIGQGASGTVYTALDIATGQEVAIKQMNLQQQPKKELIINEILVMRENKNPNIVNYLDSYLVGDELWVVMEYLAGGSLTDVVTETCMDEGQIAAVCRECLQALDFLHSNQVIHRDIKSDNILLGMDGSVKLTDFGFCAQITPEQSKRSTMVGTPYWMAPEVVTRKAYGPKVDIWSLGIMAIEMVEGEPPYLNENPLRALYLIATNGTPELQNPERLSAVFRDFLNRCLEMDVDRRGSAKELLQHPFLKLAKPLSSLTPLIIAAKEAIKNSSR
Chain of Tyrosine-protein kinase ITK/TSK (Q08881 whole entry): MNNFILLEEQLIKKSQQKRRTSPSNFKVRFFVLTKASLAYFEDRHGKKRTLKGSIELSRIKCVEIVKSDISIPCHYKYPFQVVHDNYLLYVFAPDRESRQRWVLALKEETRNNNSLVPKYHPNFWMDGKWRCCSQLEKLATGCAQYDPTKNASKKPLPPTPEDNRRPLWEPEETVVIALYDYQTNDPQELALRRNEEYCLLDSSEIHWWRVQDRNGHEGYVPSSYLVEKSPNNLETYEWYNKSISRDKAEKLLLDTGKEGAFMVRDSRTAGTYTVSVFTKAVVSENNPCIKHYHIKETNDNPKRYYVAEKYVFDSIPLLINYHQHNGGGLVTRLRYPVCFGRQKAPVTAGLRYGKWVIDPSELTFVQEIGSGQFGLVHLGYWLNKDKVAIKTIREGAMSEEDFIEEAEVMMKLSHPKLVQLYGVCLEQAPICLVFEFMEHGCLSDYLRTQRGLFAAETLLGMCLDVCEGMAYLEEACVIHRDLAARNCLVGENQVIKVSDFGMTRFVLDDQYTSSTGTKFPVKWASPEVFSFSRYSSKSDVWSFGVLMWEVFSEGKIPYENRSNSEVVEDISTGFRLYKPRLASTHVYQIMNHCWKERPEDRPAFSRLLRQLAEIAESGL

In assay [1], `CN(C)C/C=C/C(=O)Nc1ccc(C(=O)N2CCCC(Nc3ncc(Cl)c(-c4c[nH]c5ccccc45)n3)C2)cc1` (configuration not stated) showed a % of control of 80%.
In assay [2], `CNC(=O)Nc1ccc(-c2nc(N3CC4CCC(C3)O4)c3cnn(C4CCC5(CC4)OCCO5)c3n2)cc1` gave a % of control of 100%.
For `Nc1cnc(N2CCc3cc(S(=O)(=O)Nc4c(F)cc(Cl)cc4F)cc(N4CCCC4=O)c32)nc1` [TP-020n], the % of control in [3] was found to be 89%; in [4], 100%.
Take `CC[C@@H]1[C@H](F)C(=O)N[C@@H]1COc1nccc2cc(C(N)=O)c(OC)cc12` [ZIMLOVISERTIB]: the % of inhibition in assay [5] (at 0.01 µM) was 3.3%; in assay [5] (at 0.04 µM) it was 10.6%; in assay [5] (at 0.2 µM) it was 6.9%; in assay [5] (at 1 µM), -0.7%; in [5] (at 5 µM), 4.9%.
By Ki is commonly meant the equilibrium dissociation constant of an inhibitor or competing ligand from its target. As for `Cc1cnc(Nc2ccc(F)cc2Cl)nc1-c1c[nH]c(C(=O)N[C@H](CO)c2cccc(Cl)c2)c1`, in assay [6], the Ki is greater than 4 µM.
Turning to `Cc1cc(F)c(C(=O)Nc2cccc(-c3nncn3C(C)C)n2)cc1-n1cnc(C2CC2)c1`, the % of control in [7] was found to be 100%.
As to `C=CC(=O)Nc1cc(-n2c(=O)ccc3cnc4ccc(-c5ccc(NS(C)(=O)=O)cc5)cc4c32)ccc1C`, the figures for the % of control in assay [8] (at 1 µM) and in assay [8] (at 10 µM) were 100% and 50%, respectively.
For the compound `COCC(=O)NC/C=C/c1ccc2ncnc(Nc3ccc(Oc4ccc(C)nc4)c(C)c3)c2c1` [CP-724714], the % of control in [9] was 26%; in assay [10], 100%; in assay [11], 82%; in assay [12], 88%.

The record behind these values is ChEMBL document CHEMBL5465560, “Selectivity Literature for EUbOPEN Chemogenomic Library” (2024).
